Reference: patent publication US20040127403A1, “Methods for treating and preventing Gram-positive bacteremias” (priority 2002, published 2004)
Values joined by “and” are separate entries in the source; they are usually repeats but may differ in a detail not shown here. Identical values can stand only once.

How the values were obtained:
[1] = test system: Gram-positive bacteria (staphylococci, streptococci, enterococci) in feces; assay: Multiple dose study: activity on stool microflora, Gram-positive bacteria; assay type: in vivo, human
Experimental: Healthy male volunteers were administered 200, 400, or 800 mg ramoplanin twice-a-day, for ten consecutive days. The predetermined dose was reconstituted in 5 mL water per vial, mixed with 50 mL of sweetened, aromatized solution, and immediately administered orally to the subjects.
The antibacterial activity of ramoplanin on the stool microflora was assessed in a subset of the subjects. Microbial concentrations (i.e., the number of organisms per gram of fecal matter) were determined at the following time points: Day-4 (pre-treatment), Days 4 and 10 (treatment), and Days […] and 24 (follow-up). Tolerability and absorption were also investigated.

S. epidermidis ATCC35983 = assay: MIC, NCCLS broth microdilution; assay type: cell-based; conditions: S. epidermidis ATCC35983
Summary of the method: (§1)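 To stop ramoplanin adsorbing to plastic, test media contained 0.02% BSA. MICs were then determined by NCCLS broth microdilution in two media, cation-adjusted Mueller-Hinton broth and trypticase soy broth.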

E. faecium A 6350 Line-R = assay: MIC, NCCLS broth microdilution; assay type: cell-based; conditions: E. faecium A 6350 Line-R (Table 2)
Summary of the method: as §1

S. aureus ATCC35556 MRSA = assay: MIC, NCCLS broth microdilution; assay type: cell-based
Summary of the method: as §1

E. faecium UA210 = assay: MIC, NCCLS broth microdilution; assay type: cell-based; conditions: E. faecium UA210
Summary of the method: as §1

[2] = Bioavailability and serum pharmacokinetics in Beagle dogs; assay type: in vivo
Experimental: The bioavailability of a 300 mg/kg ramoplanin oral gelatin capsule and the serum pharmacokinetics of a 5 mg/kg intravenous dose were examined in four male Beagle dogs.

[3] = Oral bioavailability and pharmacokinetics in the rat; assay type: in vivo
Experimental: The oral availability of ramoplanin was assessed by comparing a 1000 mg/kg oral dose with a 5 mg/kg intravenous dose in the rat. […] The mean absorption time was 3.4 hours. […] Terminal elimination half-lives were 3.5 and 5.9 hours for the intravenous and oral doses, respectively. […] In intravenously treated rats, the amount excreted in urine represented less than 0.01% of the administered dose.

[4] = Storage stability of ramoplanin granules and reconstituted solution; assay type: physicochemical; conditions: refrigerated conditions
Experimental: Ramoplanin is available as granules for oral solution, provided, for example, in packets containing 400 mg free base of ramoplanin, along with pharmaceutically acceptable excipients (e.g., mannitol, hydroxypropyl methylcellulose, magnesium stearate). The contents of the packet can be reconstituted with approximately 15-30 mL of water, and the resulting solution either consumed directly, or further diluted with water, cranberry juice, apple juice, or 7-Up prior to drinking. After consumption, the drug may be followed with subsequent amounts of these beverages or with food (e.g., cracker, bread). […] The reconstituted ramoplanin aqueous solution has a shelf life of 48 hours when stored at refrigerated conditions.

S. epidermidis ATCC18972 = assay: MIC, NCCLS broth microdilution; assay type: cell-based; conditions: S. epidermidis ATCC18972
S. epidermidis ATCC35984 = assay: MIC, NCCLS broth microdilution; assay type: cell-based; conditions: S. epidermidis ATCC35984
[5] = test system: VanA strain of E. faecium (VRE); assay: Suppression of VRE in a mouse colonization model; assay type: in vivo, Mice
Experimental: Mice were colonized with a clinical isolate VanA strain of E. faecium (VRE) isolated from a septicemic patient. A single inoculation of 5×10^8 cfu VRE by oral gavage (Day 0) was followed by treatment with vancomycin in the drinking water to maintain colonization. On day 22, each group received the same vancomycin-containing drinking water. One group also received ramoplanin (100 μg/mL) in its drinking water. The dose of ramoplanin per day was estimated to be 15 mg/kg, based on a standard water consumption of 150 mL/kg/day. Treatment with ramoplanin was discontinued on Day 29, and vancomycin treatment was discontinued on Day 36. The control group consisted of five mice, while the ramoplanin group consisted of four mice.

fecal Enterococci = assay: Oral formulation study: suppression of fecal Enterococci; assay type: in vivo, human; conditions: 400 mg b.i.d. seven days, granulated powder in Orasweet syrup; day 7/8
Experimental: To further elucidate the pharmacodynamics and intestinal bioavailability, healthy male volunteers (18-45 years; BMI—19-29 kg/m^2) were administered oral ramoplanin (400 mg b.i.d.) for seven days and fecal Enterococci were monitored. Ramoplanin was administered to six subjects as a granulated powder admixed with Orasweet® syrup vehicle.
The presence of fecal enterococci was confirmed in all subjects prior to study initiation. Fecal samples were cultured on day 7/8. The pharmacodynamic endpoints was the number of subjects with successful suppression of fecal Enterococci on day 7/8 compared to the pre-study culture.

[6] = Day 29, completion of ramoplanin therapy, 25 mg/kg/day vancomycin + 15 mg/kg/day ramoplanin in drinking water

With Ramoplanin the “concentrations of staphylococci, streptococci, and enterococci in stool” value ([1]; by Day 10, all subjects) was “below the level of detection”, the “effect on Gram-positive bacteria in stool” value ([1]; first measurement on Day 4 of treatment) was “marked effect” and the “intestinal flora after therapy” value ([1]; follow-up after the 10-day therapy) was “re-colonized by normal Gram-positive bacteria”. The “Gram-positive colony counts in feces” value ([1]; healthy male volunteers, all doses (200, 400, 800 mg B.I.D.), during the 10-day regimen) was “undetectable levels”, the MIC (S. epidermidis ATCC35983; CAMHB) was 0.5, 0.5 μg/ml and the MIC (S. epidermidis ATCC35983; TSB) was 2 µg/mL and 1 µg/mL. For the same substance, the MIC (S. epidermidis ATCC35983; Table 6, 2nd) was 0.5 µg/mL, the MIC (E. faecium A 6350 Line-R; CAMHB) was 0.25, 0.25 μg/ml and the MIC (E. faecium A 6350 Line-R; TSB) was 0.25, 0.25 μg/ml. For the same substance, the MIC (S. aureus ATCC35556 MRSA; CAMHB) was 0.5, 0.5 μg/ml, the MIC (S. aureus ATCC35556 MRSA; TSB) was 0.125, 0.125 μg/ml and the MIC (S. aureus ATCC35556 MRSA; Table 6, 1st) was 1 µg/mL. The MIC (S. aureus ATCC35556 MRSA; Table 6, 2nd) was 0.5 µg/mL, the MIC (E. faecium UA210; CAMHB) was 0.125, 0.125 μg/ml and the MIC (E. faecium UA210; TSB) was 0.125, 0.125 μg/ml. The MIC (E. faecium UA210; Table 6, 1st) was 0.06 µg/mL, the MIC (E. faecium UA210; Table 6, 2nd) was 0.125 µg/mL and the distribution to tissues [2] was “not distributed widely to tissues”. For the same substance, the mean absorption time ([2]; 300 mg/kg oral gelatin capsule) was 8.19 ± 3.12 h, the absolute bioavailability ([2]; 300 mg/kg oral gelatin capsule vs 5 mg/kg intravenous) was “less than 1%” and the “amount excreted in urine” value ([3]; intravenously treated rats) was “less than 0.01 % of the administered dose”. For the same substance, the distribution ([3]; rat) was “not widely distributed outside the central compartment”, the “volume of distribution at steady state” value ([3]; rat) was 0.75 L/kg and the “volume of the central compartment” value ([3]; rat) was 0.42 L/kg. The “time of maximum observed serum concentration” value ([3]; rat, 5 mg/kg intravenous) was 0.083 h, the “Maximum observed serum concentration” value ([3]; rat, 1000 mg/kg oral) was 2.8 µg/mL and the mean absorption time ([3]; rat, 1000 mg/kg oral) was 3.4 h. The “time of maximum observed serum concentration” value ([3]; rat, 1000 mg/kg oral) was 0.5 h, the “absolute bioavailability (F)” value ([3]; rat, 1000 mg/kg oral relative to 5 mg/kg intravenous) was 0.18% and the Terminal elimination half-life ([3]; rat, intravenous dose) was 3.5 h. For the same substance, the Terminal elimination half-life ([3]; rat, oral dose) was 5.9 h, the storage stability ([4]; 400 mg granulated powder packets) was “stable for at least one year” and the shelf life ([4]; reconstituted ramoplanin aqueous solution) was 48 h. For the same substance, the MIC (S. epidermidis ATCC18972; CAMHB) was 0.5, 0.5 μg/ml, the MIC (S. epidermidis ATCC18972; TSB) was 1, 1 μg/ml and the MIC (S. epidermidis ATCC18972; Table 6, 1st) was 1 µg/mL. The MIC (S. epidermidis ATCC18972; Table 6, 2nd) was 0.25 µg/mL, the MIC (S. epidermidis ATCC35984; CAMHB) was 0.5, 0.5 μg/ml and the MIC (S. epidermidis ATCC35984; TSB) was 0.5, 0.5 μg/ml. For the same substance, the MIC (S. epidermidis ATCC35984; Table 6, 1st) was 1 µg/mL, the MIC (S. epidermidis ATCC35984; Table 6, 2nd) was 0.25 µg/mL and the “% Mice with VRE” value [5, 6] was 0%. The “Enterococci in faeces: Total Enterococci” value [5, 6] was less than 2.4 log 10 cfu/g faeces, the “Enterococci in faeces: VRE” value [5, 6] was less than 3.1 log 10 cfu/g faeces and the “VRE concentration per gram of feces” value ([5]; mice, after one week of ramoplanin treatment, all animals (undetectable level)) was less than 3.1 log units. The “VRE concentration per gram of feces” value ([5]; mice, before ramoplanin treatment) was 9.7 log units, the “fecal density and carriage of VRE” value ([5]; mice, ramoplanin 100 μg/mL in drinking water) was “significantly reduced” and the “growth of fecal enterococci” value (fecal Enterococci) was “suppressed in all test subjects”.
